From patent US9737545B2 (MERCK SHARP & DOHME CORP., priority 2013, dated 2017) come the findings set out here.

As a reminder, the IC50 is the point on the concentration scale where inhibition reaches its midpoint. Low values mean greater potency in that assay, high ones weaker potency in that assay.

The target of the assay is T1, wildtype HIV-1 protease (Human immunodeficiency virus type 1 group M subtype B, UniProt P04585).
T1 construct: preincubated with the HIV-1 protease (wild type) enzyme in assay buffer; made in house; host or cells: Escherichia coli
As to the kind of experiment: Assay for Inhibition of Microbial Expressed HIV Protease (Pepcleav). It counts as biochemical. On the procedure: Assay for Inhibition of Microbial Expressed HIV Protease (“Pepcleav”)
Studies of the inhibition of the wildtype HIV-1 protease (which was expressed in Escherichia coli) were carried out with a peptide substrate [Val-Ser-Gln-Asn-(βnaphthyl)Ala-Pro-Ile-Val (SEQ ID NO: 1)]. The inhibitor was first preincubated with the HIV-1 protease (wild type) enzyme in assay buffer (50 mM sodium acetate, pH 5.5, 100 mM NaCl, and 0.1% BSA) for 30 minutes at room temperature. Substrate was added to 400 micromolar in a total volume of 20 microliters containing 20 picomolar HIV-1 protease (final) and the reaction was incubated for 1 hour at 30° C. The reaction was quenched with the addition of formic acid and indinavir to 0.012% and 150 nM final concentrations, respectively. The product formation was determined after separation of product and substrate on a Zorbax Eclipse XDB-C18 column connected to an API 4000 mass spectrometer (Applied Biosystems) with multiple reaction monitoring (transitions were 644.5/428.9 and 615.4/422.2 (M1/M3) for product and indinavir respectively). The extent of inhibition of the reaction was determined from the peak area of the products. Analysis of the products, independently synthesized, provided quantitation standards and confirmation of the product composition.

As for `COC(=O)N[C@H](C(=O)Nc1ccccc1CC[C@@H]1CN[C@H](c2nc3c(C)cc(Cl)cc3[nH]2)CO1)C(c1ccccc1)c1ccccc1` [Example 24, methyl N-[(1S)-1-benzhydryl-2-[[2-[2-[(2R,5R)-5-(6-chloro-4-methyl-1H-benzimidazol-2-yl)morpholin-2-yl]ethyl]phenyl]amino]-2-oxo-ethyl]carbamate], the half-maximal inhibitory concentration (IC50) was 16.3 nM.

`COC(=O)N[C@H](C(=O)Nc1ccccc1CC[C@@H]1CN[C@H](c2nc3c(Cl)cc(C(F)(F)F)cc3[nH]2)CO1)C(c1ccccc1)c1ccccc1` [Example 26, methyl N-[(1S)-1-benzhydryl-2-[[2-[2-[(2R,5R)-5-[4-chloro-6-(trifluoromethyl)-1H-benzimidazol-2-yl]morpholin-2-yl]ethyl]phenyl]amino]-2-oxo-ethyl]carbamate] yielded an IC50 of 65.6 nM.

For the compound `COC(=O)N[C@H](C(=O)Nc1ccccc1CC[C@@H]1CN[C@H](c2nc3cc(F)c(Cl)cc3[nH]2)CO1)C(c1ccccc1)c1ccccc1` [Example 27, N-(2-{2-[(2R,5R)-5-(6-chloro-5-fluoro-1H-benzimidazol-2-yl)morpholin-2-yl]ethyl}phenyl)-Na-(methoxycarbonyl)-b-phenyl-L-phenylalaninamide], the IC50 is 0.658 nM.

Consider `COC(=O)N[C@H](C(=O)Nc1ccccc1CC[C@@H]1CN[C@H](c2nc3c(F)cccc3[nH]2)CO1)C(c1ccccc1)c1ccccc1` [Example 28, N-(2-{2-[(2R,5R)-5-(4-fluoro-1H-benzimidazol-2-yl)morpholin-2-yl]ethyl}phenyl)-Na-(methoxycarbonyl)-b-phenyl-L-phenylalaninamide], for which half-maximal inhibition (IC50) was put at 0.122 nM.

As to `COC(=O)N[C@H](C(=O)Nc1cccc(F)c1CC[C@@H]1CN[C@H](c2nc3cc(C)c(C)cc3[nH]2)CO1)C(c1ccccc1)c1ccccc1` [Example 29, N-(2-{2-[(2R,5R)-5-(5,6-dimethyl-1H-benzimidazol-2-yl)morpholin-2-yl]ethyl}-3-fluorophenyl)-Na-(methoxycarbonyl)-b-phenyl-L-phenylalaninamide], the IC50 was determined as 0.0127 nM.

`COC(=O)N[C@H](C(=O)Nc1cncc(F)c1CC[C@@H]1CN[C@H](c2nc3cc(C)c(C)cc3[nH]2)CO1)C(c1ccccc1)c1ccccc1` [Example 31, methyl N-[(1S)-1-benzhydryl-2-[[4-[2-[(2R,5R)-5-(5,6-dimethyl-1H-benzimidazol-2-yl)morpholin-2-yl]ethyl]-5-fluoro-3-pyridyl]amino]-2-oxo-ethyl]carbamate] showed an IC50 of 0.00965 nM.

Take `COC(=O)N[C@H](C(=O)Nc1cnccc1CC[C@@H]1CN[C@H](c2nc3cc(C)c(C)cc3[nH]2)CO1)C(c1ccccc1)c1ccccc1` [Example 32, methyl N-[(1S)-1-benzhydryl-2-[[4-[2-[(2R,5R)-5-(5,6-dimethyl-1H-benzimidazol-2-yl)morpholin-2-yl]ethyl]-3-pyridyl]amino]-2-oxo-ethyl]carbamate]: the half-inhibitory concentration (IC50) came out at 0.04 nM.

As for `Cc1cc2nc([C@@H]3CO[C@H](CCc4c(F)cncc4NC(=O)C4(Cc5ccccc5Cl)CC4)CN3)[nH]c2cc1C` [Example 33], the IC50 worked out at 4.08 nM.

In the case of `Cc1cc2nc([C@@H]3CO[C@H](CCc4cc[nH]c(=O)c4NC(=O)[C@@H](N)C(c4ccccc4)c4ccccc4)CN3)[nH]c2cc1C` [Example 34, N-(4-{2-[(2R,5R)-5-(5,6-dimethyl-1H-benzimidazol-2-yl)morpholin-2-yl]ethyl}-2-oxo-1,2-dihydropyridin-3-yl)-β-phenyl-L-phenylalaninamide], the IC50 was determined as 0.168 nM.

In the case of `COC(=O)N[C@H](C(=O)Nc1c(CC[C@@H]2CN[C@H](c3nc4cc(C)c(C)cc4[nH]3)CO2)cc[nH]c1=O)C(c1ccccc1)c1ccccc1` [Example 35, methyl N-[(1S)-1-benzhydryl-2-[[4-[2-[(2R,5R)-5-(5,6-dimethyl-1H-benzimidazol-2-yl)morpholin-2-yl]ethyl]-2-oxo-1H-pyridin-3-yl]amino]-2-oxo-ethyl]carbamate], the IC50 was found to be 0.159 nM.

In turn, `COC(=O)N[C@H](C(=O)Nc1ccccc1CC[C@@H]1CN[C@H](c2nnc(C)[nH]2)CO1)C(c1ccccc1)c1ccccc1` [Example 36, Nα-(methoxycarbonyl)-N-[2-(2-{(2R,5R)-5-[(5-methyl-4H-1,2,4-triazol-3-yl)]morpholin-2-yl}ethyl)phenyl]-β-phenyl-L-phenylalaninamide] had an IC50 of 16.5 nM.

`COC(=O)N[C@H](C(=O)Nc1ccccc1CC[C@@H]1CN[C@H](C#N)CO1)C(c1ccccc1)c1ccccc1` [Example 37, methyl [(1S)-2-[(2-{2-[(2R,5R)-5-cyanomorpholin-2-yl]ethyl}phenyl)amino]-1-(diphenylmethyl)-2-oxoethyl]carbamate]: it took 246 nM to reach half-maximal inhibition (IC50).

As for `COC(=O)N[C@H](C(=O)Nc1ccccc1CC[C@@H]1CN[C@H](c2nnn[nH]2)CO1)C(c1ccccc1)c1ccccc1` [Example 38, Nα-(methoxycarbonyl)-β-phenyl-N-(2-{2-[(2R,5R)-5-(1H-tetrazol-5-yl)morpholin-2-yl]ethyl}phenyl)-L-phenylalaninamide], half-maximal inhibition (IC50) was put at 2 nM.

The compound `COC(=O)N[C@H](C(=O)Nc1ccccc1CC[C@@H]1CN[C@H](c2nnnn2Cc2ccccc2)CO1)C(c1ccccc1)c1ccccc1` [Example 39, methyl [(1S)-2-[(2-{2-[(2R,5R)-5-(1-benzyl-1H-tetrazol-5-yl)morpholin-2-yl]ethyl}phenyl)amino]-1-(diphenylmethyl)-2-oxoethyl]carbamate] had an IC50 of 653 nM.

Compound `COC(=O)N[C@H](C(=O)Nc1ccccc1CC[C@@H]1CN[C@H](c2ncon2)CO1)C(c1ccccc1)c1ccccc1` [Example 41, methyl {(1S)-1-(diphenylmethyl)-2-[(2-{2-[(2R,5R)-5-(1,2,4-oxadiazol-3-yl)morpholin-2-yl]ethyl}phenyl)amino]-2-oxoethyl}carbamate] showed an IC50 of 304 nM.

`COC(=O)N[C@H](C(=O)Nc1ccccc1CC[C@@H]1CN[C@H](c2ncc[nH]2)CO1)C(c1ccccc1)c1ccccc1` [Example 42] came in with an IC50 of 2.62 nM.

As for `COC(=O)N[C@H](C(=O)Nc1ccccc1CC[C@@H]1CN[C@H](c2ncc(C)[nH]2)CO1)C(c1ccccc1)c1ccccc1` [Example 43, methyl {(1S)-1-(diphenylmethyl)-2-[(2-{2-[(2R,5R)-5-(5-methyl-1H-imidazol-2-yl)morpholin-2-yl]ethyl}phenyl)amino]-2-oxoethyl}carbamate], 1.02 nM corresponded to half-maximal inhibition (IC50).

For the compound `COC(=O)N[C@H](C(=O)Nc1ccccc1CC[C@@H]1CN[C@H](c2ncc(Cc3ccccc3)[nH]2)CO1)C(c1ccccc1)c1ccccc1` [Example 44, N-(2-{2-[(2R,5R)-5-(5-benzyl-1H-imidazol-2-yl)morpholin-2-yl]ethyl}phenyl)-Nα-(methoxycarbonyl)-β-phenyl-L-phenylalaninamide], half-maximal inhibition (IC50) required 0.568 nM.

Compound `COC(=O)N[C@H](C(=O)Nc1ccccc1CC[C@@H]1CN[C@H](c2ncc(-c3ccccc3)[nH]2)CO1)C(c1ccccc1)c1ccccc1` [Example 45, Nα-(methoxycarbonyl)-β-phenyl-N-(2-{2-[(2R,5R)-5-(5-phenyl-1H-imidazol-2-yl)morpholin-2-yl]ethyl}phenyl)-L-phenylalaninamide] yielded an IC50 of 0.041 nM.

`COC(=O)N[C@H](C(=O)Nc1ccccc1CC[C@@H]1CN[C@H](c2cnc(-c3ccccc3)[nH]2)CO1)C(c1ccccc1)c1ccccc1` [Example 46, Nα-(methoxycarbonyl)-β-phenyl-N-(2-{2-[(2R,5R)-5-(2-phenyl-1H-imidazol-5-yl)morpholin-2-yl]ethyl}phenyl)-L-phenylalaninamide] came in with an IC50 of 841 nM.

`COC(=O)N[C@H](C(=O)Nc1ccccc1CC[C@@H]1CN[C@H](c2cnc(C)[nH]2)CO1)C(c1ccccc1)c1ccccc1` [Example 47, Nα-(methoxycarbonyl)-N-(2-{2-[(2R,5R)-5-(2-methyl-1H-imidazol-5-yl)morpholin-2-yl]ethyl}phenyl)-β-phenyl-L-phenylalaninamide] showed an IC50 of 378 nM.

In turn, `COC(=O)N[C@H](C(=O)Nc1ccccc1CC[C@@H]1CN[C@H](c2nc(C)c(C)[nH]2)CO1)C(c1ccccc1)c1ccccc1` [Example 48, N-(2-{2-[(2R,5R)-5-(4,5-dimethyl-1H-imidazol-2-yl)morpholin-2-yl]ethyl}phenyl)-Nα-(methoxycarbonyl)-β-phenyl-L-phenylalaninamide] had an IC50 of 1.81 nM.

On to `C#C[C@@H]1CO[C@H](CCc2ccccc2NC(=O)[C@@H](NC(=O)OC)C(c2ccccc2)c2ccccc2)CN1` [Example 49, N-(2-{2-[(2R,5R)-5-ethynylmorpholin-2-yl]ethyl}phenyl)-Nα-(methoxycarbonyl)-β-phenyl-L-phenylalaninamide], for which half-maximal inhibition (IC50) was put at 824 nM.

Compound `COC(=O)N[C@H](C(=O)Nc1ccccc1CC[C@@H]1CN[C@H](c2cn(Cc3ccccc3)nn2)CO1)C(c1ccccc1)c1ccccc1` [Example 50, N-(2-{2-[(2R,5R)-5-(1-benzyl-1H-1,2,3-triazol-4-yl)morpholin-2-yl]ethyl}phenyl)-Nα-(methoxycarbonyl)-β-phenyl-L-phenylalaninamide] showed an IC50 of 36.3 nM.

On to `COC(=O)N[C@H](C(=O)Nc1ccccc1CC[C@@H]1CN[C@H](c2cnnn2Cc2ccccc2)CO1)C(c1ccccc1)c1ccccc1` [Example 51, N-(2-{2-[(2R,5R)-5-(1-benzyl-1H-1,2,3-triazol-5-yl)morpholin-2-yl]ethyl}phenyl)-Nα-(methoxycarbonyl)-β-phenyl-L-phenylalaninamide], for which the IC50 came out at 576 nM.
